Assays:
Format in all cases: functional
Conditions in all cases: 120 h
Tetranychus urticae [1] = assay: Acaricidal activity against Tetranychus urticae (two-spotted spider mite) in kidney bean leaf assessed as mortality at 50 ppm at 25 degC measured after 5 days
Tetranychus urticae [2] = assay: Acaricidal activity against Tetranychus urticae (two-spotted spider mite) in kidney bean leaf assessed as mortality at 200 ppm at 25 degC measured after 5 days
Tetranychus urticae [3] = assay: Acaricidal activity against Tetranychus urticae (two-spotted spider mite) in kidney bean leaf assessed as mortality at 500 ppm at 25 degC measured after 5 days
Tetranychus urticae [4] = assay: Acaricidal activity against Tetranychus urticae (two-spotted spider mite) in kidney bean leaf assessed as mortality at 3.1 ppm at 25 degC measured after 5 days
Tetranychus urticae [5] = assay: Acaricidal activity against Tetranychus urticae (two-spotted spider mite) in kidney bean leaf assessed as mortality at 12.5 ppm at 25 degC measured after 5 days

Structure (SMILES) | mortality at 50 ppm (Tetranychus urticae [1]) [%] | mortality at 200 ppm (Tetranychus urticae [2]) [%] | mortality at 500 ppm (Tetranychus urticae [3]) [%] | mortality at 3.1 ppm (Tetranychus urticae [4]) [%] | mortality at 12.5 ppm (Tetranychus urticae [5]) [%]
CCc1nn(C)c(C(=O)NCc2ccc(C(C)C)cc2)c1Cl | 100 | 100 | 100 | 0 | 30
CCCCCCCCc1ccc(CNC(=O)c2c(Cl)c(CC)nn2C)cc1 | 30 | 80 | 100 | 0 | 0
CCc1nn(C)c(C(=O)NCc2ccc([N+](=O)[O-])cc2)c1Cl | 0 | 0 | 0 |  | 
CCCCc1ccc(CNC(=O)c2c(Cl)c(CC)nn2C)cc1 | 100 | 100 | 100 | 0 | 80
CCc1nn(C)c(C(=O)NCc2ccc(CC(C)C)cc2)c1Cl | 80 | 100 | 100 | 0 | 30
CCc1nn(C)c(C(=O)NCc2ccc(C(C)CC)cc2)c1Cl (stereo not given) | 100 | 100 | 100 | 0 | 0
CCCCCc1ccc(CNC(=O)c2c(Cl)c(CC)nn2C)cc1 | 100 | 100 | 100 | 30 | 80
CCc1nn(C)c(C(=O)NCc2ccc(CC(C)(C)C)cc2)c1Cl | 100 | 100 | 100 | 0 | 80
CCCCCCc1ccc(CNC(=O)c2c(Cl)c(CC)nn2C)cc1 | 30 | 80 | 100 | 0 | 0
CCc1nn(C)c(C(=O)NCc2ccc([Si](C)(C)C)cc2)c1Cl | 100 | 100 | 100 | 0 | 80
CCc1nn(C)c(C(=O)NCc2ccc(OC)cc2)c1Cl | 0 | 0 | 0 |  | 
CCOc1ccc(CNC(=O)c2c(Cl)c(CC)nn2C)cc1 | 0 | 0 | 0 |  | 
CCCOc1ccc(CNC(=O)c2c(Cl)c(CC)nn2C)cc1 | 0 | 80 | 100 |  | 
CCc1nn(C)c(C(=O)NCc2ccc(OC(C)C)cc2)c1Cl | 0 | 30 | 80 |  | 
CCCCOc1ccc(CNC(=O)c2c(Cl)c(CC)nn2C)cc1 | 30 | 80 | 100 |  | 
CCc1nn(C)c(C(=O)NCc2ccc(OC(F)F)cc2)c1Cl | 0 | 30 | 80 |  | 
CCc1nn(C)c(C(=O)NCc2ccc(OCC(F)(F)F)cc2)c1Cl | 0 | 30 | 80 |  | 
CCOCCOc1ccc(CNC(=O)c2c(Cl)c(CC)nn2C)cc1 | 0 | 30 | 80 |  | 
CCOCc1ccc(CNC(=O)c2c(Cl)c(CC)nn2C)cc1 | 0 | 80 | 100 |  | 

Structure (SMILES) | mortality at 50 ppm (Tetranychus urticae [1]) [%] | mortality at 200 ppm (Tetranychus urticae [2]) [%] | mortality at 500 ppm (Tetranychus urticae [3]) [%] | mortality at 3.1 ppm (Tetranychus urticae [4]) [%] | mortality at 12.5 ppm (Tetranychus urticae [5]) [%]
CCc1nn(C)c(C(=O)NCc2ccc(N)cc2)c1Cl | 0 | 0 | 0 |  | 
CCCNc1ccc(CNC(=O)c2c(Cl)c(CC)nn2C)cc1 | 0 | 0 | 80 |  | 
CCc1nn(C)c(C(=O)NCc2ccc(SC)cc2)c1Cl | 0 | 80 | 100 |  | 
CCc1nn(C)c(C(=O)NCc2ccc([S+](C)[O-])cc2)c1Cl (stereo not given) | 0 | 0 | 0 |  | 
CCc1nn(C)c(C(=O)NCc2ccc(S(C)(=O)=O)cc2)c1Cl | 0 | 0 | 0 |  | 
CCc1nn(C)c(C(=O)NCc2ccc(C#N)cc2)c1Cl | 0 | 0 | 0 |  | 
CCc1nn(C)c(C(=O)NCc2ccc(C(F)(F)F)cc2)c1Cl | 30 | 80 | 100 |  | 
CCc1nn(C)c(C(=O)NCc2ccc(Br)cc2)c1Cl | 0 | 0 | 0 |  | 
Cc1nn(C)c(C(=S)NCc2ccc(C(C)(C)C)cc2)c1Cl | 0 | 30 | 80 |  | 
Cc1n[nH]c(C(=O)NCc2ccc(C(C)(C)C)cc2)c1Cl | 0 | 0 | 0 |  | 
CCn1nc(C)c(Cl)c1C(=O)NCc1ccc(C(C)(C)C)cc1 | 0 | 0 | 0 |  | 
Cc1nn(C(C)C)c(C(=O)NCc2ccc(C(C)(C)C)cc2)c1Cl | 0 | 0 | 0 |  | 
CCCCn1nc(C)c(Cl)c1C(=O)NCc1ccc(C(C)(C)C)cc1 | 0 | 0 | 0 |  | 
Cc1nn(-c2ccccc2)c(C(=O)NCc2ccc(C(C)(C)C)cc2)c1Cl | 0 | 0 | 0 |  | 
Cc1nn(Cc2ccccc2)c(C(=O)NCc2ccc(C(C)(C)C)cc2)c1Cl | 0 | 0 | 0 |  | 
Cc1nn(C(F)F)c(C(=O)NCc2ccc(C(C)(C)C)cc2)c1Cl | 0 | 0 | 0 |  | 
Cc1cc(C(=O)NCc2ccc(C(C)(C)C)cc2)n(C)n1 | 100 | 100 | 100 | 0 | 30
COc1c(C)nn(C)c1C(=O)NCc1ccc(C(C)(C)C)cc1 | 100 | 100 | 100 | 0 | 100
CCOc1c(C)nn(C)c1C(=O)NCc1ccc(C(C)(C)C)cc1 | 0 | 100 | 100 | 0 | 0

Structure (SMILES) | mortality at 50 ppm (Tetranychus urticae [1]) [%] | mortality at 200 ppm (Tetranychus urticae [2]) [%] | mortality at 500 ppm (Tetranychus urticae [3]) [%] | mortality at 3.1 ppm (Tetranychus urticae [4]) [%] | mortality at 12.5 ppm (Tetranychus urticae [5]) [%]
Cc1nn(C)c(C(=O)NCc2ccc(C(C)(C)C)cc2)c1OC(F)F | 0 | 0 | 100 | 0 | 0
Cn1ncc(Cl)c1C(=O)NCc1ccc(C(C)(C)C)cc1 | 30 | 100 | 100 | 0 | 0
CC(C)c1nn(C)c(C(=O)NCc2ccc(C(C)(C)C)cc2)c1Cl | 100 | 100 | 100 | 0 | 30
CCCc1nn(C)c(C(=O)NCc2ccc(C(C)(C)C)cc2)c1Cl | 30 | 80 | 100 | 0 | 0
CCCc1ccc(CNC(=O)c2c(Cl)c(CC)nn2C)cc1 | 0 | 30 | 100 | 0 | 0
Cc1nn(C)c(C(=O)NC(C)(C)C)c1Br | 0 | 0 | 0 |  | 
Cc1nn(C)c(C(=O)Nc2ccc(C(C)(C)C)cc2)c1Br | 0 | 0 | 0 |  | 
Cc1nn(C)c(C(=O)NCc2ccccc2)c1Br | 0 | 0 | 0 |  | 
Cc1nn(C)c(C(=O)NC(C)c2ccccc2)c1Br (stereo not given) | 0 | 0 | 0 |  | 
Cc1nn(C)c(C(=O)NC(C)(C)c2ccccc2)c1Br | 0 | 0 | 0 |  | 
Cc1nn(C)c(C(=O)NC(c2ccccc2)C(C)C)c1Cl (stereo not given) | 0 | 0 | 0 |  | 
Cc1nn(C)c(C(=O)NC(c2ccccc2)c2ccccc2)c1Br | 0 | 0 | 0 |  | 
Cc1nn(C)c(C(=O)NC(C)c2ccc(C(C)(C)C)cc2)c1Br (stereo not given) | 80 | 100 | 100 |  | 
Cc1nn(C)c(C(=O)NCc2ccccc2C(F)(F)F)c1Cl | 0 | 0 | 0 |  | 
Cc1nn(C)c(C(=O)NCc2cccc(C(F)(F)F)c2)c1Cl | 0 | 0 | 0 |  | 
Cc1nn(C)c(C(=O)NCc2ccc(C(F)(F)F)cc2)c1Cl | 80 | 100 | 100 |  | 
Cc1nn(C)c(C(=O)N(C)Cc2ccc(C(C)(C)C)cc2)c1Cl | 0 | 0 | 0 |  | 
Cc1nn(C)c(C(=O)OCc2ccc(C(C)(C)C)cc2)c1Br | 0 | 0 | 0 |  | 
Cc1nn(C)c(C(=O)SCc2ccc(C(C)(C)C)cc2)c1Cl | 0 | 0 | 30 |  | 

Source: ChEMBL document CHEMBL3045921, “Synthesis and Acaricidal Activity of Pyrazole-5-carboxamide Derivatives” (1991)
